Source: US20240189291A1, “Prevention And Treatment Of Atrial Fibrillation/Flutter With Gamma-Ketoaldehyde Scavengers” (Vanderbilt University, priority 2016, published 2024)
Several values for one entry are separate records, joined by “and”; a condition that tells them apart may be missing. Equal entries are not always repeated. Entries after “also recorded” stand apart in the source; their conditions may differ. Where two headings read alike, the source gives them in different places.

Assays:
COX1 = COX1 (Homo sapiens, UniProt P23219); settings: cited from earlier work
[1] = tested on: mice fed a high-fat diet (HFD); test: Mouse model of diet-induced obesity (DIO) with inducible AF; assay type: in vivo; settings: 12 weeks, co-treatment
Excerpt: Experimental obesity: Evidence for IsoLGs in AF susceptibility. Given that obesity is also linked to inflammation and oxidative stress, we have begun studies to investigate the role of IsoLGs in a mouse model of diet-induced obesity (DIO). […] Thus, in the early stages of both HTN and obesity, the present inventors show a role for IsoLGs in the AF substrate. In both HTN and obesity, AF was inducible in the absence of fibrosis, with reversibility in HTN. These findings imply that IsoLGs constitute an early pathologic target, and that their inhibition could potentially prevent the development of AF. In the proposed studies, we will confirm the critical role of IsoLGs using rigorous experimental approaches. For these studies, we use well-characterized murine models of HTN and obesity described above and routinely employed.
The following data are for 12 week-treated animals.

[2] = tested on: hypertensive (ang II) mice; settings: ang II-mediated HTN in mice, earlier work (Kirabo and colleagues), cited from earlier work
atrial HL-1 cells [3] = test: Rapid pacing of cultured atrial HL-1 cells (cellular model simulating AF); assay type: cell-based
Excerpt: Protein oligomers and IsoLGs in a cellular model simulating AF. […] Moreover, exposure of unpaced cells to a physiologic concentration of IsoLGs caused cytosolic PAO production, similar to that observed with rapid pacing (FIG. 4, top panels).

[4] = tested on: hypertensive (ang II) mice; test: Murine model of ang II-mediated hypertension with inducible AF; assay type: in vivo; settings: for AF burden / AF susceptibility (total inducible AF): 2-HOBA and 4-HOBA 1G/L in drinking water
Excerpt: Experimental hypertension: Evidence for IsoLGs in AF susceptibility. Oxidative stress and PAO burden in human atrium are linked to HTN. […] The present inventors have determined that IsoLGs are mediators for AF susceptibility in HTN using a murine model (2 wk mini-pump infusion of angiotensin II [ang II]), in which mice develop sustained HTN and inducible AF. […] Importantly, mass spectrometry data have confirmed this finding (FIG. 5B), with a striking 100 fold increase in atrial adduct formation during HTN (2-3 fold greater increase than that seen in Alzheimer's brain). In addition, PAOs accumulated in the atria of hypertensive compared to control mice (FIGS. 5C and D). […] As expected, hypertensive mice developed inducible AF compared to control (FIG. 7). […] Normalization of BP in ang II-treated mice with hydralazine/HCTZ prevented AF susceptibility, while mechanical stretch of atrial myocytes generated both LG adducts (FIG. 9) and PAOs (not shown), signifying a critical role of atriomyocyte stretch. The AF substrate was reversible by 2 wks after stopping ang II (85% reduction in total AF burden), with partial normalization of BP (74%; n=13, data not shown). Of note, 2-HOBA had no effects on any ECG parameters in HTN mice.

COX2 = target: T1, COX2 (Homo sapiens, UniProt P35354); settings: cited from earlier work
T1 sequence (P35354 18-604): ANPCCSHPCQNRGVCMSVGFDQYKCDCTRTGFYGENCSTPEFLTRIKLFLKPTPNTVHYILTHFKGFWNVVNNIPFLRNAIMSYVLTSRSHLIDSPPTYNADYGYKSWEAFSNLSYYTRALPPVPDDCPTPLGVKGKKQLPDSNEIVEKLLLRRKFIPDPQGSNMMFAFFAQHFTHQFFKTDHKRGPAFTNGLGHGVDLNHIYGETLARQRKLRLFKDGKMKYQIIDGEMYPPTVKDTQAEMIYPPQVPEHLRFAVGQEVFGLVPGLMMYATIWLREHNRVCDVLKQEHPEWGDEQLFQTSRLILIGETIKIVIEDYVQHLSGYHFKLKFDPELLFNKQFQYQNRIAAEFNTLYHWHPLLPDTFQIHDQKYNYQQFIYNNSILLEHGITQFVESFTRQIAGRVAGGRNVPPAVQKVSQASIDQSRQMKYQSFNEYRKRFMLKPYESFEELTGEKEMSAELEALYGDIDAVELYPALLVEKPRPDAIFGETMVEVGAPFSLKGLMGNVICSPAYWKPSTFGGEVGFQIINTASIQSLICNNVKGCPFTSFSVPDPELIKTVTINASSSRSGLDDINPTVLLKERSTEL

[5] = tested on: mouse model of Alzheimer's disease; settings: cited from earlier work
ROS = settings: cited from earlier work
[6] = in vitro studies, in vivo studies in mice, pre-clinical toxicology studies; cited from earlier work
IsoLGs = settings: cited from earlier work
atrial HL-1 cells [7] = test: Cytotoxicity of ANP oligomers to atrial HL-1 cells (ATP production); assay type: cell-based; settings: peptide oligomers, 24 hr exposure; listed as ANP oligomers
Protocol: Mutant ANP is highly fibrillogenic, generating cytotoxic PAOs. To compare oligomer formation between WT and mutant ANP, Western analysis was performed on peptides allowed to oligomerize at 23° C. for variable time points. […] For amyloid β1-42, oligomer toxicity is a transient, time-dependent phenomenon, in the progression from monomers to PAOs to fibrils. To investigate this process for WT and mutant ANP, peptides incubated in vitro to generate oligomers over different time periods were incubated with atrial HL-1 cells for 24 hr. For WT ANP, proteotoxicity (manifested by decreased cellular ATP production) was maximal for PAOs generated during a 2 wk incubation, while for mutant ANP, the time point of maximal oligomer cytotoxicity occurred much earlier, within ˜3 d (FIG. 14). Cytotoxicity was confirmed by measuring cellular oxygen consumption rate using extracellular flux analysis (Seahorse Bioscience XFE96). Thus, oligomers formed by both WT and mutant ANP cause atrial myocyte dysfunction, as evidenced by reduced cardiomyocyte ATP production, with proteotoxicity occurring earlier for mutant compared to WT ANP, consistent with accelerated oligomer formation.

[8] = rapidly paced atrial HL-1 cells in presence of compound
[9] = ang II-treated hypertensive mice, 1G/L in drinking water
[10] = ang II-treated hypertensive mice

Chain of COX1 (P23219 24-599): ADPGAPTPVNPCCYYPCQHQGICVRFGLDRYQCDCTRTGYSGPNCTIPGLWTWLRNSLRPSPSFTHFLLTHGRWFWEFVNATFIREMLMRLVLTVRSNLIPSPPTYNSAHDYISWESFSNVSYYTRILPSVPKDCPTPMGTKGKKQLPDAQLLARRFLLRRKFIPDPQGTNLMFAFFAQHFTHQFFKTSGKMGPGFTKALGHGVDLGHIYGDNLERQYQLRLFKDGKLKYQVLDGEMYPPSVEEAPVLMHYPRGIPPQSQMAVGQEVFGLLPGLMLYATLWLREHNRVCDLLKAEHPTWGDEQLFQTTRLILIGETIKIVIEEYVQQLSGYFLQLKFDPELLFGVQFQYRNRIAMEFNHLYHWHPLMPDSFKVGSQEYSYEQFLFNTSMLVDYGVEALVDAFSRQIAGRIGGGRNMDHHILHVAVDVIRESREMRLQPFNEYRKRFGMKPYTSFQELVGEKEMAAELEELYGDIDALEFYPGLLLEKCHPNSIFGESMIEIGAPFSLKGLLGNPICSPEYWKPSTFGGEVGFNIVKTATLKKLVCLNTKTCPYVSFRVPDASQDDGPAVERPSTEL

Molecule: NCc1ccccc1O [2-HOBA, 2-hydroxybenzylamine]
- inhibition of COX1 enzyme (COX1): does not inhibit
- AF burden (total inducible AF) [1]: suppressed and markedly suppressed and 2-HOBA reduces
- blood pressure / antihypertensive effect [2]: effectively lowered; also recorded: prominent antihypertensive effect
- blood pressure / antihypertensive effect ([2]; listed as salicylamine): remarkable therapeutic benefit
- PAO formation (atrial HL-1 cells [3]; [8]): virtually eliminated and 2-HOBA prevents
- myocyte stress response (transcriptional upregulation of Nppb and Hspa1a) (atrial HL-1 cells [3]; [8]): blunted
- isoLG adducts (atrial HL-1 cells [3]; rapidly-beating atrial cell model): 2-HOBA prevents
- ECG parameters ([4]; HTN mice): no effects
- atrial IsoLG adducts [4, 9]: prevents and markedly reduced and 2-HOBA reduces
- atrial PAO formation [4, 9]: prevents and markedly reduced and 2-HOBA reduces
- AF burden / AF susceptibility (total inducible AF) [4, 10]: suppressed and markedly reduced and 2-HOBA reduces
- inhibition of COX2 enzyme (COX2): does not inhibit
- development of cognitive impairment / therapeutic benefit [5]: prevent
- development of cognitive impairment / therapeutic benefit ([5]; listed as salicylamine): remarkable therapeutic benefit
- ROS levels (ROS): does not reduce ROS levels significantly
- concentrations of O2·− or F2-Isoprostanes (ROS; during in vitro oxidation): do not affect
- safety profile [6]: excellent safety profile
- dicarbonyl scavenging activity (IsoLGs): can also scavenge other injurious lipid dicarbonyl compounds such as MDA
- rate of reaction with IsoLGs compared to IsoLG binding to the ε-amine of lysine (IsoLGs): much more rapid rate (by several orders of magnitude)

Molecule: hydralazine/hydrocholorothiazide [hydralazine/HCTZ, reference compound]
- AF burden / AF susceptibility (total inducible AF) [4, 10]: prevented
- blood pressure (BP) ([4]; ang II-treated mice): Normalization

Molecule: WT ANP: wild-type atrial natriuretic peptide (28 amino acids), incubated to form oligomers
- cytotoxicity (ATP production by atrial HL-1 cells) (atrial HL-1 cells [7]): reduced ATP production; also recorded: cytotoxic

Molecule: NCc1ccc(O)cc1 [4-HOBA, reference compound]
- AF burden (total inducible AF) [1]: had no effect; also recorded: did not
- AF burden / AF susceptibility (total inducible AF) [4, 10]: had no effect
- dicarbonyl scavenging activity (IsoLGs): cannot scavenge dicarbonyls
